Source: patent publication US20180153899A1, “PHARMACEUTICAL COMPOSITIONS” (Novartis AG, priority 2015, published 2018)
Where two headings read alike, the source gives them in different places.

Assay: Clinical study, steady state PK (Cycle 1 Day 15) after daily oral tablets of example 1
Assay type: in vivo, human
Conditions: for AUC(0-t) / Cmax / Tmax / half-life / AUC: human, in vivo; for Tmax: median (minimum-maximum); for half-life: read-out: T½ (converted)
Description: Non-small cell lung cancer patients with EGFR T790M mutation were enrolled in a clinical study and received escalating doses of EGF816 ranging from 100 mg to 225 mg daily oral doses by using the tablets as described in example 1.

[1] = 150 mg qd (N = 6), geometric mean (CV %)
[2] = 200 mg qd (N = 7), geometric mean (CV %)
[3] = 225 mg qd (N = 7), geometric mean (CV %)
[4] = 100 mg qd (N = 3), geometric mean (CV %)

CLss/F [1]: 238 (38) mL/min
CLss/F [2]: 247 (58) mL/min
CLss/F [3]: 222 (37) mL/min
AUC(0-t) [4]: 9050 ng·h/mL
Cmax [4]: 519 ng/mL
Tmax (100 mg qd (N = 3)): 6 h
half-life (100 mg qd (N = 3), only one value calculated): 14 h
AUC [1]: 10500 ng·h/mL
AUC(0-t) [1]: 10300 ng·h/mL
Cmax [1]: 675 ng/mL
half-life [1]: 17 h
Tmax (150 mg qd (N = 6)): 5 h
AUC [2]: 13500 ng·h/mL
AUC(0-t) [2]: 13500 ng·h/mL
Cmax [2]: 939 ng/mL
half-life [2]: 13 h
Tmax (200 mg qd (N = 7)): 3 h
AUC [3]: 16900 ng·h/mL
AUC(0-t) [3]: 12100 ng·h/mL
Cmax [3]: 1270 ng/mL
half-life [3]: 10 h
Tmax (225 mg qd (N = 7)): 3 h
Structure (SMILES): Cc1cc(C(=O)Nc2nc3cccc(Cl)c3n2[C@@H]2CCCCN(C(=O)/C=C/CN(C)C)C2)ccn1 [EGF816, (R,E)-N-(7-chloro-1-(1-(4-(dimethylamino)but-2-enoyl)azepan-3-yl)-1H-benzo[d]imidazol-2-yl)-2-methylisonicotinamide]
